Laboratory results from publication PMC8213057, “Targeting ALK2: An Open Science Approach to Developing Therapeutics for the Treatment of Diffuse Intrinsic Pontine Glioma” (Journal of Medicinal Chemistry, 2020).

Key:
CK1G3 = CK1G3 (Homo sapiens, UniProt Q9Y6M4); assay: biochemical; conditions: read-out: % enzyme activity, 1 μM; Run 1, Run 2
TIE2/TEK = TIE2/TEK (Homo sapiens, UniProt Q02763); assay: biochemical; conditions: read-out: % enzyme activity, 1 μM; Run 1, Run 2
BRSK2 = biological target: T1, BRSK2 (Homo sapiens, UniProt Q8IWQ3); conditions: 1 μM; Run 1, Run 2
T1 sequence (Q8IWQ3 1-736): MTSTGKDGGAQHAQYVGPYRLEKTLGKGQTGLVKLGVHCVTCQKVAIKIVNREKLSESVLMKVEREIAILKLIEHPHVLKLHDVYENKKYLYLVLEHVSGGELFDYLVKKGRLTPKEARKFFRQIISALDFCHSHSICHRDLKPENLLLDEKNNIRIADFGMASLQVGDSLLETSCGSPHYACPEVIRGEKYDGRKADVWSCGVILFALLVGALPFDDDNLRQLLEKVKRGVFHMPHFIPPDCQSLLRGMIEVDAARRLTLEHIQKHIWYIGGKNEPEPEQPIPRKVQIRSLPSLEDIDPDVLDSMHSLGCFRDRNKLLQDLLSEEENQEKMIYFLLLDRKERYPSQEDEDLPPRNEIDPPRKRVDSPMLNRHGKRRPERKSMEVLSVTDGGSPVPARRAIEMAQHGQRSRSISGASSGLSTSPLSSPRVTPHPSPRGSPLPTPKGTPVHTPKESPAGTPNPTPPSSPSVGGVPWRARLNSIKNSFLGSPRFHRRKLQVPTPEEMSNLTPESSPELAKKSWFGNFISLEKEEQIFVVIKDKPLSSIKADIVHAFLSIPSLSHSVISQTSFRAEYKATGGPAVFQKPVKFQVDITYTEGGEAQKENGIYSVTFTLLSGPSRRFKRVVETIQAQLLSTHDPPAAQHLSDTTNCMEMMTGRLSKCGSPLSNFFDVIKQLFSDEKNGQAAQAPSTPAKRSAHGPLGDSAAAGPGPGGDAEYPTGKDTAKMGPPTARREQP

IKKb/IKBKB = biological target: T2, IKKb/IKBKB (Homo sapiens, UniProt O14920); conditions: 1 μM; Run 1, Run 2
T2 sequence (O14920 1-756): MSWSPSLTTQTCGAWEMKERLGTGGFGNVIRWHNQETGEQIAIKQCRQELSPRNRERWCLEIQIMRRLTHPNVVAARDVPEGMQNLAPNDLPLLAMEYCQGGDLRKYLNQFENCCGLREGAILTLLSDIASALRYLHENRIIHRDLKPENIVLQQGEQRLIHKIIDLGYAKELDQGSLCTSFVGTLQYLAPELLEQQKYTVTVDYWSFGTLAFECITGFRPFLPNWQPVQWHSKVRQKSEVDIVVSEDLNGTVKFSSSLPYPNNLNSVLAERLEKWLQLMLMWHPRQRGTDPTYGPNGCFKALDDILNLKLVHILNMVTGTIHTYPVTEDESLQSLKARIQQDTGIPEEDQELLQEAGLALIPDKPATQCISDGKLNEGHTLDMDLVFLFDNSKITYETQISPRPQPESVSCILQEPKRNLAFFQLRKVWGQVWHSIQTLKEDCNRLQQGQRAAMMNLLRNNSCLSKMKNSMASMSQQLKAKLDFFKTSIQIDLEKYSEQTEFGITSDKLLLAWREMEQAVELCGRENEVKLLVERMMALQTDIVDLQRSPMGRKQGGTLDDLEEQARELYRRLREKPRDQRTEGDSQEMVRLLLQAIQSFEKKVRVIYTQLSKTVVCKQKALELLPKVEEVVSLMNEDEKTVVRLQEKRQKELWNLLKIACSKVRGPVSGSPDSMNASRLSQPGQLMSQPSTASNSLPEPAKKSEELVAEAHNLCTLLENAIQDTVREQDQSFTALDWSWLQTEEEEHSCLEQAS

PKN1/PRK1 = PKN1/PRK1 (Homo sapiens, UniProt Q16512); assay: biochemical; conditions: read-out: % enzyme activity, 1 μM; Run 1, Run 2
Chain of PKN1/PRK1 (Q16512 whole entry): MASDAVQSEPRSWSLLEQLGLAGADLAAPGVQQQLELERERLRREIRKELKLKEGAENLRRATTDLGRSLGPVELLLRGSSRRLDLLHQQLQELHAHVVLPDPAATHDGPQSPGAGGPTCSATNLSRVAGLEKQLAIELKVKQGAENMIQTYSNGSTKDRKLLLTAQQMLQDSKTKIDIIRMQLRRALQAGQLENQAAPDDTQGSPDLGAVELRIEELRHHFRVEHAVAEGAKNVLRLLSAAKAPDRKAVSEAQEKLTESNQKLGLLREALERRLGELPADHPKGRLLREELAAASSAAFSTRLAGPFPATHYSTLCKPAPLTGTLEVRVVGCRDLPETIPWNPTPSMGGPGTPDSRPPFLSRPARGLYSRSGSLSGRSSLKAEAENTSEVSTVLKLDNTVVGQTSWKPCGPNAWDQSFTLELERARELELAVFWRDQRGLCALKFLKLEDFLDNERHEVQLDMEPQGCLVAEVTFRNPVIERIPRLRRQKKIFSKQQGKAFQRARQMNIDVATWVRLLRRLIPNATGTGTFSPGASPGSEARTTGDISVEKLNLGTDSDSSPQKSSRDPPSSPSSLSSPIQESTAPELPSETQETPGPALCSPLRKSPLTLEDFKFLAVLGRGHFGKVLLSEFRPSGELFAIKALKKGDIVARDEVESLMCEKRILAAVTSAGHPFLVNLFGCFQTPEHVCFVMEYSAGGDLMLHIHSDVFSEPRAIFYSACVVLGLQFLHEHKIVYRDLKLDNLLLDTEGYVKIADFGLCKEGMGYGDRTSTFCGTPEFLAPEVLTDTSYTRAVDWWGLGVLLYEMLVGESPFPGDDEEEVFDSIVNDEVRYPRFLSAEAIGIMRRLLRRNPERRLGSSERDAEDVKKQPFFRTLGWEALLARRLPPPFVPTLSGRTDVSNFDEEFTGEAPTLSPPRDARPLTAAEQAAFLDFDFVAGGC

PIM3 = PIM3 (Homo sapiens, UniProt Q86V86); conditions: 1 μM; Run 1, Run 2
CDK4/cyclin D3 = CDK4/cyclin D3 (Homo sapiens, UniProt P11802); assay: biochemical; conditions: read-out: % enzyme activity, 1 μM; Run 1, Run 2
Chain of CDK4/cyclin D3 (P11802 whole entry): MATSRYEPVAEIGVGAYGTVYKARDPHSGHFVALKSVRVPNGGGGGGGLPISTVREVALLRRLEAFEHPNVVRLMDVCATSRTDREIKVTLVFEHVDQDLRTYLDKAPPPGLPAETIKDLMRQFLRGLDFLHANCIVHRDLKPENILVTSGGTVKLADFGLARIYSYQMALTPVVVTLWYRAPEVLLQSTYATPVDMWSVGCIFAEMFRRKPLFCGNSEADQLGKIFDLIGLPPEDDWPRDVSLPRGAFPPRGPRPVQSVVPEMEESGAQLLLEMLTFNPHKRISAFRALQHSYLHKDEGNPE
Chain of CDK4/cyclin D3 (P30281 whole entry partner): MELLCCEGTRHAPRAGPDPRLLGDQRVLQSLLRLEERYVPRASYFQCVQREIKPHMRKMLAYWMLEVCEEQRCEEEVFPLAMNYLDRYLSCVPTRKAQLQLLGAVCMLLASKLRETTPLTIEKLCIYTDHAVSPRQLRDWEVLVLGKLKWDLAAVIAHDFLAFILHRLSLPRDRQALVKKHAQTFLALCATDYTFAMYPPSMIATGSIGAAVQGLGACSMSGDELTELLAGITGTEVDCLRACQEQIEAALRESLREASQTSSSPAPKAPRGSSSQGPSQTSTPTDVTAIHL

CK2a = CK2a (Homo sapiens, UniProt P68400); conditions: 1 μM; Run 1, Run 2
MLCK2/MYLK2 = MLCK2/MYLK2 (Homo sapiens, UniProt Q9H1R3); conditions: 1 μM; Run 1, Run 2
Chain of MLCK2/MYLK2 (Q9H1R3 whole entry): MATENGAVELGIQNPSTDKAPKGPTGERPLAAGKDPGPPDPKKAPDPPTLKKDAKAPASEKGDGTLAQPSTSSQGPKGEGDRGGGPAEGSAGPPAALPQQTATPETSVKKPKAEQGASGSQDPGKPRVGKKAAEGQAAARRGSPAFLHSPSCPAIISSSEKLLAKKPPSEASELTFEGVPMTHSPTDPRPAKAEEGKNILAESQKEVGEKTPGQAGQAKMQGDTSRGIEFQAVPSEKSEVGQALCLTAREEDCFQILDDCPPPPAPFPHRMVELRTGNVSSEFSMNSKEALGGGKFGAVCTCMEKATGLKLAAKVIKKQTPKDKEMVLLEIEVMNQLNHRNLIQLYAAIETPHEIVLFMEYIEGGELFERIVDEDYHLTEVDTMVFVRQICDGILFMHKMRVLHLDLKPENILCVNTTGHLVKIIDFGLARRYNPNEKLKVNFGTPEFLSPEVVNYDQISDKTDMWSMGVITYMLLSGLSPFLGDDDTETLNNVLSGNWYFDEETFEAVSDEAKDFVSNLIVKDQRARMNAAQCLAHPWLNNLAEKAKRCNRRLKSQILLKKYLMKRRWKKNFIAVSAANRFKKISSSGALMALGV

DYRK1/DYRK1A = DYRK1/DYRK1A (Homo sapiens, UniProt Q13627); assay: biochemical; conditions: read-out: % enzyme activity, 1 μM; Run 1, Run 2
CDK1/cyclin B = CDK1/cyclin B (Homo sapiens, UniProt P06493); conditions: 1 μM; Run 1, Run 2
SGK2 = SGK2 (Homo sapiens, UniProt Q9HBY8); assay: biochemical; conditions: read-out: % enzyme activity, 1 μM; Run 1, Run 2
Chain of SGK2 (Q9HBY8 whole entry): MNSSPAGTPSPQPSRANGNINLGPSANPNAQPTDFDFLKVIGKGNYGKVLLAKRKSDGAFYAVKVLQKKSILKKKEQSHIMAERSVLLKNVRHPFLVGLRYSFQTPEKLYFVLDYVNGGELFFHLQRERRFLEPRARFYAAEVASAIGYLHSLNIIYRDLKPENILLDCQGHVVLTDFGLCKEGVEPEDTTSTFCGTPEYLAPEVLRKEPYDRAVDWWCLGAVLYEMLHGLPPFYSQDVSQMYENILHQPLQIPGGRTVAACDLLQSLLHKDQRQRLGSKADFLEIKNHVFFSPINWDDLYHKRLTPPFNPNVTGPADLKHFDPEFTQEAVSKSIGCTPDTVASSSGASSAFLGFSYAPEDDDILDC

WEE1 = WEE1 (Homo sapiens, UniProt P30291); conditions: 1 μM; Run 1, Run 2
CDK3/cyclin E = CDK3/cyclin E (Homo sapiens, UniProt Q00526); assay: biochemical; conditions: read-out: % enzyme activity, 1 μM; Run 1, Run 2
Chain of CDK3/cyclin E (Q00526 whole entry): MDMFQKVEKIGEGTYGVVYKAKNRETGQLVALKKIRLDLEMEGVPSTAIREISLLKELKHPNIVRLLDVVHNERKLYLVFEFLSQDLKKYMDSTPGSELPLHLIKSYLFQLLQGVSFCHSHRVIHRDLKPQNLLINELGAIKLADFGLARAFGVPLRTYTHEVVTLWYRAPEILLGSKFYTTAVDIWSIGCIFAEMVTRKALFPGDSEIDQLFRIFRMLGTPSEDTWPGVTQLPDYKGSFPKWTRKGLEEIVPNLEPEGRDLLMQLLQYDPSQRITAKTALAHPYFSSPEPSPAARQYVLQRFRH
Chain of CDK3/cyclin E (P24864 whole entry, further chain): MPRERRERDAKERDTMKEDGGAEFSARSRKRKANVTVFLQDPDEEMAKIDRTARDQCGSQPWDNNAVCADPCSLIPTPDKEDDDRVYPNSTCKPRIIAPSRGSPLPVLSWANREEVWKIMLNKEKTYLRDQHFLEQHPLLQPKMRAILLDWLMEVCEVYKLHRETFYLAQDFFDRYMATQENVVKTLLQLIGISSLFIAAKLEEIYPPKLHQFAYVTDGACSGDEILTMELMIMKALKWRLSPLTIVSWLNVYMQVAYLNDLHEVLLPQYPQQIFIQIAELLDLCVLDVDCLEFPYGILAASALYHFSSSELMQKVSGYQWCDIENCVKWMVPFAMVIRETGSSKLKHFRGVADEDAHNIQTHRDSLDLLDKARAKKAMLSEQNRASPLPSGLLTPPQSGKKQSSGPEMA

FER = FER (Homo sapiens, UniProt P16591); assay: biochemical; conditions: read-out: % enzyme activity, 1 μM; Run 1, Run 2
Chain of FER (P16591 whole entry): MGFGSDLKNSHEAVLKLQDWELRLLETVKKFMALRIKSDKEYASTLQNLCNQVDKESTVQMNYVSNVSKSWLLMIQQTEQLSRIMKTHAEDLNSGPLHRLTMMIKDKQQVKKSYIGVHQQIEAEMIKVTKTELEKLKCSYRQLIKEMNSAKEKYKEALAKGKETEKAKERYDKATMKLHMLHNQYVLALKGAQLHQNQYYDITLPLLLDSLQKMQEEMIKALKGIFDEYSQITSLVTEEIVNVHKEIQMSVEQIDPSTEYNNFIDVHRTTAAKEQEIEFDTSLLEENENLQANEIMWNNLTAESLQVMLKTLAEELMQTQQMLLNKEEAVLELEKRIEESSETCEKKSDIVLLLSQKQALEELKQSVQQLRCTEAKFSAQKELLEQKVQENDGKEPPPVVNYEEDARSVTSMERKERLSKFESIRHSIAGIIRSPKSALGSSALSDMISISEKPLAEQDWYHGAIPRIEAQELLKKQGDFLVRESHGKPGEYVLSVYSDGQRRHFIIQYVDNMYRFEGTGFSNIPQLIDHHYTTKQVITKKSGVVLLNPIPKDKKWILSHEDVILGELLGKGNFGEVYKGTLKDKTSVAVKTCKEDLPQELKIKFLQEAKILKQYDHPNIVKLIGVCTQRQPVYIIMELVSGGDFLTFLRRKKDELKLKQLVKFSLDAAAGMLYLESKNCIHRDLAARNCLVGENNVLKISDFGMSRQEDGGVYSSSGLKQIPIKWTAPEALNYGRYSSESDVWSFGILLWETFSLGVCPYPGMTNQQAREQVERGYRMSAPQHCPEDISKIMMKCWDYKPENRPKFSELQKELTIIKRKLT

MST1/STK4 = biological target: T3, MST1/STK4 (Homo sapiens, UniProt Q13043); conditions: 1 μM; Run 1, Run 2
T3 sequence (Q13043 1-487): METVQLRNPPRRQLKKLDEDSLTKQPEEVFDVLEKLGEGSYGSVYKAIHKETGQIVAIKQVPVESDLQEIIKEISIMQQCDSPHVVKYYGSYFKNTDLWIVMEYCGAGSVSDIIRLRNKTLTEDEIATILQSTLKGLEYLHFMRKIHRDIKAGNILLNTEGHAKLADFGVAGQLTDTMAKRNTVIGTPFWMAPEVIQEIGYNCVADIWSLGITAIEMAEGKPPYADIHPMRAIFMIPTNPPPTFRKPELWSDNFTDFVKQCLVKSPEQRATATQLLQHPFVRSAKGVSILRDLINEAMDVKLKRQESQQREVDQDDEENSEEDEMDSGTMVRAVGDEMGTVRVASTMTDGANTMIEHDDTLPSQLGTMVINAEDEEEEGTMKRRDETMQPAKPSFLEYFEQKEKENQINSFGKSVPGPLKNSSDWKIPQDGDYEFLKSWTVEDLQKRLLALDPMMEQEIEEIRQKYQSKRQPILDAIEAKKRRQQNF

EPHA2 = EPHA2 (Homo sapiens, UniProt P29317); conditions: 1 μM; Run 1, Run 2

Chain of CK1G3 (Q9Y6M4 whole entry): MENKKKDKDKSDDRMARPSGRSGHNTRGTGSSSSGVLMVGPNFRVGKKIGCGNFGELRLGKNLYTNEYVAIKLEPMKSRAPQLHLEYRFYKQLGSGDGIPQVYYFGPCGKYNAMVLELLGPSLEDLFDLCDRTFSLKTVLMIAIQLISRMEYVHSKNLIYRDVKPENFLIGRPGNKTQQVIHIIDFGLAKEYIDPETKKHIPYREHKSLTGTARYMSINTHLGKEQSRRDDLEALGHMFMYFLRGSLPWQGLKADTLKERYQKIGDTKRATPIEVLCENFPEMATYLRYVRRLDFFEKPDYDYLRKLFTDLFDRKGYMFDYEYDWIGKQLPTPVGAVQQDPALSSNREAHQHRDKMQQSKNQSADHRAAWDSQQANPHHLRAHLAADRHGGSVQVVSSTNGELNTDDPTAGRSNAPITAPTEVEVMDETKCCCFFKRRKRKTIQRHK

| Compound | remaining activity at 1 µM (CK1G3) | remaining activity at 1 µM (TIE2/TEK) | % enzyme activity (BRSK2) | % enzyme activity (IKKb/IKBKB) | remaining activity at 1 µM (PKN1/PRK1) | % enzyme activity (PIM3) | remaining activity at 1 µM (CDK4/cyclin D3) | % enzyme activity (CK2a) | % enzyme activity (MLCK2/MYLK2) | remaining activity at 1 µM (DYRK1/DYRK1A) | % enzyme activity (CDK1/cyclin B) | remaining activity at 1 µM (SGK2) | % enzyme activity (WEE1) | remaining activity at 1 µM (CDK3/cyclin E) | remaining activity at 1 µM (FER) | % enzyme activity (MST1/STK4) | % enzyme activity (EPHA2) |
| --- | --- | --- | --- | --- | --- | --- | --- | --- | --- | --- | --- | --- | --- | --- | --- | --- | --- |
| COc1cc(-c2cncc(-c3ccc(N4CCN(C)CC4)cc3)c2C)cc(F)c1C(N)=O [Compound 26a, 2-Fluoro-6-methoxy-4-(4-methyl-5-(4-(4-methylpiperazin-1-yl)phenyl)pyridin-3-yl)benzamide] | 65.9% | 93.8% | 60.95% | 101.39% | 98.5% | 99.10% | 101% | 91.32% | 66.59% | 43.3% | 92.35% | 102% | 104.15% | 82.7% | 89.2% | 100.26% | 97.38% |
| COc1cc(-c2cncc(-c3ccc(N4C[C@@H](C)N(C)[C@@H](C)C4)cc3)c2C)cc(F)c1C(N)=O [Compound 26c, 2-Fluoro-6-methoxy-4-(4-methyl-5-(4-((3R,5S)-3,4,5-trimethylpiperazin-1-yl)phenyl)pyridin-3-yl)benzamide] | 78.8% | 93.4% | 76.84% | 100.59% | 98.7% | 106.19% | 96% | 86.32% | 82.74% | 62.4% | 91.98% | 103% | 99.73% | 78.7% | 86% | 101.65% | 104.56% |
